Reference: patent publication US20260035459A1, “HUMANIZED CHIMERIC ANTIGEN RECEPTORS TARGETING THE B-CELL RECEPTOR OF CHRONIC LYMPHOCYTIC LEUKEMIA AND USES THEREOF” (AVA LIFESCIENCE GMBH, priority 2022, published 2026)

What was measured:
OCI-Ly1 wt cells = type: cell-based; conditions: human, 24 h
Protocol: (§1) The graph depicts a titration of ibrutinib to determine toxicity towards OCI-Ly1 cell models upon administration of serial dilutions of ibrutinib (11 steps, ranges 0.01 to 20 μM) to OCI-Ly1 wt or OCI-Ly1_R110 cells for 24 hours. Cell growth in percent was plotted as total numbers of ibrutinib-treated cells relative to the total number of untreated cells. […] This dose was thus chosen for further testing of CAR T efficacy.
(§2) Coadministration of BTK-inhibitors like ibrutinib-a BTK/ITK inhibitor known to restore T cell functionality—to CAR T cell can have additive anti-tumor effects. To test this in the R110 CAR T setting, ibrutinib toxicity for OCI-Ly1 target cells was assessed first. For this, 2×10^4 OCI-Ly1 wt and OCI-Ly1_R110 cells were seeded in 200 μl culture media supplemented with serial dilutions of ibrutinib (PCI-32765, Selleck Chemicals, Cat. S2680) ranging from 0.01 to 20 μM. Cells grown under the same conditions without ibrutinib served as control. After 24h incubation, viable (trypan blue exclusion) cells were counted using the Vi-CELL XR system (Beckman Coulter). Cell growth in percent was then plotted as total numbers of ibrutinib-treated cells relative to the total number of untreated cells (FIG. 10). […] This dose was thus chosen for further testing of CAR T efficacy.

OCI-Ly1_R110 cells = type: cell-based; conditions: human, 24 h
Protocol: as §1, §2

## C=CC(=O)N1CCC[C@@H](n2nc(-c3ccc(Oc4ccccc4)cc3)c3c(N)ncnc32)C1 [ibrutinib]
OCI-Ly1 wt cells
  highest dose that does not result in a viability drop of target cells: 0.08 UM
OCI-Ly1_R110 cells
  highest dose that does not result in a viability drop of target cells: 0.08 UM
